The values below come from patent US12564641B2 (EISAI R&D MANAGEMENT CO., LTD., priority 2019, dated 2026).

Series [1] relates to MSLN-negative cell lines. Briefly: In vitro cytotoxicity (IC50, Crystal Violet) on MSLN-negative cell lines (Example 11). It is filed as cell-based. The settings on record: for IC50: read-out: In vitro cell based potency, IC50. Here is the method:
Plates were incubated at 37° C. 5% CO2 for an additional 5 days. […] Plates were read at 570 nm.

Series [2] concerns MSLN-positive cell lines. Briefly: In vitro cytotoxicity (IC50, Crystal Violet) on MSLN-positive cell lines (Example 11). The settings on record: for IC50: read-out: In vitro cell based potency, IC50.
Description: Cytotoxicity: Cells were sub-cultured and seeded at 5,000 cells/well in complete growth medium in 96-well tissue culture plates, and incubated at 37° C., 5% CO2 overnight (16 hours). Test reagents were serially diluted 1:3 in 2 mL deep-well dilution plates, starting at 200 nM (10 dilutions total). Diluted samples (100 μL) were added to the cell plates (starting concentration of test samples at 100 nM). Plates were incubated at 37° C. 5% CO2 for an additional 5 days. Medium was then discarded, and plates were washed once with 200 μL DPBS, stained with 50 μL of 0.2% Crystal Violet solution at room temperature for 15 min, and then washed extensively with tap water. Plates were air-dried, and Crystal Violet was dissolved with 200 μL of 1% SDS solution. Plates were read at 570 nm. Data was analyzed for IC50 determination using GraphPad Prism 6.
Series [3] deals with human mesothelioma PDX Meso7212. Briefly: Human mesothelioma PDX model Meso7212 (Example 17). The class given is in vivo, mouse. The settings on record: 10 mg/kg single dose i.v. As for the experimental part:
Xenotransplantation: On day 0. Meso 7212 tumors were removed from the five donor mice under sterile conditions.
Experimental procedure: After the xenotransplantation, the engraftment and the propagation of the tumor in the mice were controlled at least twice weekly by palpation. When the tumor was palpable, the measurements of tumor diameters were performed with a digital caliper (Mitutoyo).
From the first treatment day onwards, tumor volumes and body weights were recorded twice weekly. The animal welfare was controlled twice daily.
Treatment: All agents were administered intravenously as a single dose on the day of randomization. Animals in the control group were treated with DPBS in the same manner.

The test system of series [4] is MSLN-expressing CHO cells. Briefly: ADCC activity, luciferase assay with Jurkat-Effector cells. It is filed as cell-based. Here is the method: MSLN-expressing CHO cells were thawed and seeded 1.000 cells/well (25 μL) in 96-well tissue culture plates in complete RPMI-4% Ultralow IgG FBS. […] 6,000 Jurkat-Effector cells (Promega) were thawed and added (25 μL) to the cell plate, and the plate was incubated at 37° C. 5% CO2 for 18-22 hours.
Luciferase assay reagent was thawed in the dark. 75 μL of luciferase assay reagent was added to each well, plates were shaken for 30 sec on a plate shaker. Plates were read on a luminometer after 5 min incubation.

The subject of series [5] is human mesothelioma HAY xenograft. Briefly: Human mesothelioma HAY xenograft model (Example 16). It is filed as in vivo, mouse. The note with it: 5 mg/kg. As for the experimental part: (§1) 100 μL/mouse of the mixture was injected subcutaneously.
In general terms: A xenograft is tissue or cells of one species grown in another, often human tumour cells in immunodeficient mice.

The subject of series [6] is human NSCLC PDX LXFL-529. Briefly: Human NSCLC PDX model LXFL-529. The note with it: 12.5 mg/kg i.v. From the text: (§2) Animals: Female NMRI nu/nu mice, 4 to 6 weeks of age.
Xenotransplantation: LXFL-529 established growing tumor (T3N1M0) from a primary non-small cell lung adenocarcinoma human patient.
Experimental procedure: Animals were monitored until the tumor implants reached the study volume criteria of 50-250 mm^3 (e.g., 80-200 mm^3) in a sufficient number of animals. […] The process of the assignment to groups (enrollment, stratified randomization) may also be referred to as randomization. The day of randomization was designated as day 0 of the experiment.
(§3) Tumors were measured and mice were weighed twice a week during the experimental period. The first day of dosing was day 1, one day after randomization (day 0).

Series [7] relates to human gastric cancer NCI-N87 xenograft. Briefly: Human gastric cancer NCI-N87 xenograft model (Example 15). It is filed as in vivo, mouse. The settings on record: 5 mg/kg. Here is the method:
as §1

Series [8] concerns human NSCLC PDX LXFA-586. Briefly: Human NSCLC PDX model LXFA-586. The settings on record: 25 mg/kg single dose i.v.
Source text: as §2
Xenotransplantation: LXFA-586 established growing tumor (T2N1M0) from a primary non-small cell lung adenocarcinoma human patient.
Experimental procedure: Animals were monitored until the tumor implants reached the study volume criteria of 50-250 mm^3 (e.g., 80-200 mmi) in a sufficient number of animals. […] The process of the assignment to groups (enrollment, stratified randomization) may also be referred to as randomization. The day of randomization was designated as day 0 of the experiment.
as §3

In series [9] the target is mesothelin (Homo sapiens, UniProt Q13421). Briefly: Surface plasmon resonance (BIAcore) binding analysis of anti-mesothelin antibodies. The settings on record: Table 15; rabbit-human chimeric antibodies, individual curves. Here is the method: Anti-mesothelin antibody binding affinity to mesothelin was measured by BIAcore (BIAcore T-100, GE healthcare, #1426075), using a series S CM5 chip. Antibody concentrations were adjusted to 1 μg/mL and mesothelin (50 μg) to 100 nM in 1×HBS-P+ buffer (GE Healthcare). Anti-human antibody capture chip was prepared according to the manufacturer's protocol using a CM5 chip with immobilization wizard. Final capture antibody levels were 8000-9000 RU, in HBS-P+. Chip was prepared for assay with five cycles of 300 sec buffer injection followed by 30 sec regeneration, all at 30 μL/min across all four flow cells. Antibodies were captured on flow cells 2-4 by sequential injections of individual ligand solutions for 90 sec at 10 μL/min. Analyte injection was done in a single-cycle kinetics manner by sequential injections of analyte solutions from low to high concentration for 240 sec each at 30 μL/min. Detection was 2-1, 3-1, 4-1. Double-referencing was performed by a sequence of identical ligand capture injections, followed by 5 buffer-only injections for 240 sec each, dissociation for 1800 sec, and regeneration as above. All ligands were analyzed for binding to mesothelin in duplicate. Kinetic analysis was performed using BIAEvaluations software using a 1:1 Langmuir fitting model. On-rate, off-rate, and affinity constants were averaged from duplicate runs.
On the technique in general: In SPR one partner is held on a chip, and binding of the other changes the refractive index at the surface.

Series [10] deals with cynomolgus monkey mesothelin. Briefly: BIAcore binding affinity, cynomolgus monkey mesothelin (Example 10). Here is the method:
(§4) Binding affinity: Binding measurements were performed in HBS-P+ buffer on a BIAcore T-100 instrument. Antibodies were diluted to 1 μg/mL in HBS-P+. Samples were centrifuged at 14,000×g for 5 min at room temperature and then supernatants were transferred to a new 1.5 mL BIAcore tube and capped. Mesothelin (50 μg) was diluted to 100 nM in 1×HBS-P+ buffer, then serial diluted 5-fold at 100, 20, 4, 0.8, and 0.16 nM in BIAcore tubes and capped. Anti-human antibody capture chip was prepared according to the manufacturer's protocol using a CM5 chip with immobilization wizard. Final capture antibody levels were 8000-9000RU, in HBS-P+. Chip was prepared for assay with five cycles of 300 sec buffer injection followed by 30 sec regeneration, all at 30 μL/min across all four flow cells.
(§5) Antibodies were captured on flow cells 2-4 by sequential injections of individual ligand solutions for 90 sec at 10 μL/min. Analyte injection was done in a single-cycle kinetics manner by sequential injections of analyte solutions from low to high concentration for 240 sec each at 30 μL/min. Detection was 2-1, 3-1, 4-1. Double-referencing was performed by a sequence of identical ligand capture injections, followed by 5 buffer-only injections for 240 sec each, dissociation for 1800 sec, and regeneration as above. All ligands were analyzed for binding to mesothelin in duplicate. […]

In series [11] the target is T1, rat mesothelin (Rattus norvegicus, UniProt Q9ERA7).
T1 sequence (Q9ERA7 36-600): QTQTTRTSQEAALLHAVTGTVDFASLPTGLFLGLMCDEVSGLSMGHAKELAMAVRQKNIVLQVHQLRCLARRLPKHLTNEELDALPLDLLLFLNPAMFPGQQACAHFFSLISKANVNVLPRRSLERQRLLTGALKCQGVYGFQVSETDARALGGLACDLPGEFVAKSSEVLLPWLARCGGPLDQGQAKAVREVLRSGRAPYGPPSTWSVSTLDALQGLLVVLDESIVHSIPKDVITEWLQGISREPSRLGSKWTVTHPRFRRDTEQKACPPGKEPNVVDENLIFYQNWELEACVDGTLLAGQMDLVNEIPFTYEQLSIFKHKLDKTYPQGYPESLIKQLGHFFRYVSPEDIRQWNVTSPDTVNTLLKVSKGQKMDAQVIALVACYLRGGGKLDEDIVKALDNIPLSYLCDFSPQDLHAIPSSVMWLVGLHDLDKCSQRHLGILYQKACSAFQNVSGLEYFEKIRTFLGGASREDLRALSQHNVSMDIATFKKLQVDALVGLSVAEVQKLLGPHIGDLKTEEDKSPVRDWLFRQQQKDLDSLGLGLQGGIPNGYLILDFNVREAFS
Briefly: BIAcore binding affinity, rat mesothelin (Example 10). As for the experimental part: as §4, §5

The mark [12] stands for this setting: NCI-H292 cells (MSLN MFI 108.6).
Setting [13] is: NCI-H1568/MSLN cells (MSLN MFI 4474.00).
Setting [14] is: OVCAR3-A1 cells (MSLN MFI 220.0).
[15] abbreviates: Table 34: BAY 94-9343 and anetumab, MSLN-expressing CHO cells, Jurkat-Effector cells.

“Also recorded” adds a separate entry of the source. Like-named read-outs stand apart in the source and are kept apart here. A value given as a limit tells only on which side of the number the result lay.

mesothelin, sequence (Q13421 with tags, fused parts or gaps): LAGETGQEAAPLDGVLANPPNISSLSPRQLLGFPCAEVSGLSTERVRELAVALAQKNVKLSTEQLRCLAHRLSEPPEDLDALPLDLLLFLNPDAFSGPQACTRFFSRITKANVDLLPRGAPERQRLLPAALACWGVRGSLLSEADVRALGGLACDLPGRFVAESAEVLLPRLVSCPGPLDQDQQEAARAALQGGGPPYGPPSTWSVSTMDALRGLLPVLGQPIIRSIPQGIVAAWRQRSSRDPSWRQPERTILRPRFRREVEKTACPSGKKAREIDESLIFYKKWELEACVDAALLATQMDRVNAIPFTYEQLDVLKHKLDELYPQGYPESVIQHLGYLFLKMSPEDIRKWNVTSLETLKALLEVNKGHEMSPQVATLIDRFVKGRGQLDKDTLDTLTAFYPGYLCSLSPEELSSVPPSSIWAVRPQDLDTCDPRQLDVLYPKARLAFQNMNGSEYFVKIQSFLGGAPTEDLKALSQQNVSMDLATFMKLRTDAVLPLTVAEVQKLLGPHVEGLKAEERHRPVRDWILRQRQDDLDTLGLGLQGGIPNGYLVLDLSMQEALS

As usually defined, the IC50 is the concentration at which inhibition is half-maximal. Consider `COc1cc2cc(c1Cl)N(C)C(=O)C[C@H](OC(=O)[C@H](C)N(C)C(=O)CCC(C)(C)S)[C@]1(C)O[C@H]1[C@H](C)[C@@H]1C[C@@](O)(NC(=O)O1)[C@H](OC)/C=C/C=C(\C)C2` [DM4], for which the “% Max Killing” value in [1] (A431 cells (MSLN MFI 5.6)) turned out to be 92.52%; in series [1] (BxPC3 cells (MSLN MFI 15.59)), 97.98%; in series [1] (SKOV3 cells (MSLN MFI 20)), 81.89%; in series [2] (setting [12]) it was 92.40%; in series [2] (setting [13]), 77.49%; in series [2] (setting [14]), 100.00%. Moreover, the IC50 in series [1] (A431 cells (MSLN MFI 5.6)) came to 0.71 nM; in [1] (BxPC3 cells (MSLN MFI 15.59)), 0.57 nM; in series [1] (SKOV3 cells (MSLN MFI 20)) it was 0.28 nM; in series [2] (setting [12]), 0.24 nM; in [2] (setting [13]) it was 0.57 nM; in series [2] (setting [14]), 0.1 nM.
For the compound “BAY 94-9343: ADC comprising anetumab conjugated to the maytansinoid tubulin inhibitor DM4 via a reducible SPDB linker”, the anti-tumor effect entry in series [3] is reported as “tumor regression”. In addition, the body weight change entry in [3], in [5] and in series [7] was “No body weight loss” throughout. Further, in series [1], the “cytotoxicity on MSLN-negative cell lines” value was “killing on both MSLN-positive and MSLN-negative cell lines; also recorded: relatively high levels of cytotoxicity”. Moreover, the “% Max Killing” value in series [1] (A431 cells (MSLN MFI 5.6)) turned out to be 96.82%; in series [1] (BxPC3 cells (MSLN MFI 15.59)) it was 97.33%; in series [1] (SKOV3 cells (MSLN MFI 20)), 74.99%; in series [2] (setting [12]), 64.15%; in series [2] (setting [13]) it was 75.10%; in [2] (setting [14]), 100.00%. Also, the IC50 in series [1] (A431 cells (MSLN MFI 5.6)) was found to be 5.31 nM; in series [1] (BxPC3 cells (MSLN MFI 15.59)), 2.53 nM; in series [1] (SKOV3 cells (MSLN MFI 20)), 0.81 nM; in series [2] (setting [12]), 3.07 nM; in series [2] (setting [13]), 0.15 nM; in [2] (setting [14]), 0.41 nM. The ADCC activity entry in series [4] was “weaker ADCC activity than anetumab”; in series [4] (setting [15]), 65.06%. Also, the anti-tumor efficacy entry in series [6] is given as “no anti-tumor efficacy”; in series [8], “robust anti-tumor efficacy similar to MORAb-109”. Further, the “cytotoxicity on MSLN-positive cell lines” value in [2] was “killing on both MSLN-positive and MSLN-negative cell lines”. In series [8], the “Tq (tumor volume quadrupling time)” value was “not reached”.
A word on the Kd: it is a measure of binding affinity in units of concentration. With “MORAb-009: known anti-mesothelin antibody, MORAb-009 (Amatuximab)”, in [9], binding was put at a Kd of 0.15 nM, the “ka” value amounted to 1.95e+06 M⁻¹ s⁻¹ and the “kd” value stood at 0.000292 s⁻¹.
As for “anetumab: a human anti-mesothelin antibody”, the “% Max Killing” value in [1] (A431 cells (MSLN MFI 5.6)) was 18.58%; in [1] (BxPC3 cells (MSLN MFI 15.59)) it was 25.73%; in series [1] (SKOV3 cells (MSLN MFI 20)), 31.55%; in series [2] (setting [12]), 15.15%; in series [2] (setting [13]), 5.50%; in [2] (setting [14]), 19.80%. Also, the IC50 in [1] (A431 cells (MSLN MFI 5.6)) was more than 300 nM; in series [1] (BxPC3 cells (MSLN MFI 15.59)), more than 300 nM; in series [1] (SKOV3 cells (MSLN MFI 20)) it was more than 300 nM; in series [2] (setting [12]) it was more than 300 nM; in series [2] (setting [13]), more than 100 nM; in series [2] (setting [14]) it was more than 100 nM. For the same compound, the ADCC activity in series [4] (setting [15]) turned out to be 100%. Also, the “binding to cynomolgus monkey mesothelin” value in [10] is given as “did not bind”. The “binding to rat mesothelin” value in [11] was “Nether antibody bound”.
